Legend:
[1] = system: DNA polymerase of E. Coli (Klenow DNA polymerase enzyme); assay: Incorporation of deoxycytidine 5'-[alpha32P]-triphosphate into a DNA in the presence of DNA polymerase in an acellular system; type: biochemical; settings: concentration 100 μg/ml; labelled dCTP, 10 minutes at 37°, vs control
Method: Incorporation of Deoxycytidine 5′-[alpha^32P]-triphosphate into a DNA in the Presence of DNA Polymerase in an Acellular System
Labelling of the DNA is carried out on a DNA fragment which incorporates nucleotides by way of the activity of the DNA polymerase enzyme. From these nucleotides, the dCTP is labelled with radioactive phosphorus (^32P).
Plasmidal DNA (pc DNA 3, invitrogen, Netherlands) is diluted to a concentration of 2 ng in 45 μl of TE solution (10 mM Tris-HCl, pH 8, 1 mM EDTA) and denatured by heating to 100° C. for 10 minutes before being replaced directly in ice. The denatured DNA is placed in the tube which contains the buffer solution of dATP, dGTP, dTTP, the Klenow DNA polymerase enzyme and the random primers (Rediprime II random prime labelling system, RPN 1633, RPN 1634, Amersham pharmacia biotech). 2 μl of Redivue deoxycytidine 5′-[alpha^32P]-triphosphate (250 μCi specific activity Amersham, Orsay, France) is added to start the reaction. The reaction is carried out in the presence or absence of the compound to be tested for 10 minutes at 37°. […] 10 μL is counted in 5 ml of scintillator (Instage1 plus and scintillation counter Packard, Rungis, France). The results are expressed as a percentage of the inhibition of incorporation of the labelled nucleotide in the sample with respect to the control: 100−[(DPM of the sample treated/control DPM)×100].

[2] = system: HT29 tumor cells; assay: Incorporation of tritiated thymidine into DNA of HT29 cells in exponential growth phase; type: cell-based, human; settings: 3 hours treatment
Method: (§1) DU-145 (human prostate cancer cells), HT29 (cancer of the colon) and Mia-PaCa2 (human pancreatic cancer cells) were acquired from the American Tissue Culture Collection (Rockville, Md., USA).
Incorporation of Thymidine Labelled with Tritium into DNA Cells in Exponential Growth Phase
HT29 cells are seeded in 96-well plates (culturPlate-96, Packard, Rungis, France) (4000 cells per well) with the medium (DME, Gibco BRL, Cergy-Pontoise, France) complemented with 10% of foetal calf serum, Gibco BRL, Cergy-Pontoise, France). On day 3, the medium is removed and replaced with medium containing the tritiated thymidine (5′-thymidine TRK.328, 1 mCi, 0.6 μCi/well, Amersham, Orsay, France) with or without the compound. The treatments are carried out for 3 hours. The medium is then removed and the cells are washed twice with 20 μl of PBS (Gibco BRL, Cergy-Pontoise, France). The lysis solution (SDS 1.25%, EDTA 5 mM) is added for 10 minutes at ambient temperature, then 75 μl of scintillating liquid (microscint 40, Packard, Rungis, France) is added. The plates are read using Topcount (Packard, Rungis, France). These tests are carried out in duplicate and the results are expressed with respect to the incorporation of the labelled nucleotide in the sample treated with the compound over the incorporation of the labelled nucleotide in the control sample (sample DPM/control DPM).

[3] = system: DU-145 (human prostate cancer cells); assay: Measurement of cell proliferation (WST1), DU-145; type: cell-based; settings: DU-145, 96 hours treatment, read-out: IC50 inhibitory concentration, proliferation of DU-145 cell lines
Method: as §1
(§2) Measurement of Cell Proliferation
(§3) The cells placed in 80 μl of Dulbecco's modified Eagle medium (Gibco-BRL, Cergy-Pontoise, France) completed with 10% of foetal calf serum inactivated by heating (Gibco-BRL, Cergy-Pontoise, France), 50000 units/l of penicillin and 50 mg/l streptomycin (Gibco-BRL, Cergy-Pontoise, France), and 2 mM of glutamine (Gibco-BRL, Cergy-Pontoise, France) were seeded on a 96-well plate on day 0. The cells were treated on day 1 for 96 hours with increasing concentrations of each of the compounds to be tested. At the end of the of this period, quantification of the cell proliferation is evaluated by a calorimetric test based on the cleavage of the tetrazolium salt WST1 by mitochondrial dehydrogenases in viable cells leading to the formation of formazan (Boehringer Mannheim, Meylan, France). These tests are carried out in duplicate with 8 determinations per concentration tested. The products are solubilised in dimethylsulphoxide (DMSO) at 10^−2 M and finally used in culture with 0.5% DMSO.

[4] = system: Mia-PaCa2 (human pancreatic cancer cells); assay: Measurement of cell proliferation (WST1), Mia-PaCa2; type: cell-based; settings: MIA PaCa-2, Mia-Paca2, 96 hours treatment, read-out: IC50 inhibitory concentration, proliferation of Mia-Paca2 cell lines
Method: as §1, §2, §3

SMILES	% inhibition of incorporation [1] [%]	incorporation of tritiated thymidine (sample dpm/control dpm) ([2]; 25 μg/ml)	incorporation of tritiated thymidine (sample dpm/control dpm) ([2]; 50 μg/ml)	incorporation of tritiated thymidine (sample dpm/control dpm) ([2]; 100 μg/ml)	IC50 [3] [µM]	IC50 [4] [µM]
C[C@H]1C(=O)O[C@H]2C[C@]3(C)O[C@@H]3[C@@H]3O[C@@H]3C3=C[C@@H](OC3=O)[C@@H]21 [Dihydromikanolide, dihydromikanolide, reference compound]	77 ± 11	0.98	0.22	0.14	–	–
CC1C(=O)OC2CC3(C)OC3C(O[Si](C)(C)C(C)(C)C)C(N(C)C)C3=CC(OC3=O)C21 (centres unmarked) [Example 16, 11-(tert-butyldimethylsiloxy)-12-dimethylamino-3,8-dimethyl-5,9,15-trioxatetracyclo[11.2.1.0^2,6.0^8,10]hexadec-13(16)-ene-4,14-dione]	70 ± 8	0.71	0.58	0.52	≤ 30	≤ 30
CC1CCN(C2C3=CC(OC3=O)C3C(CC4(C)OC4C2OC(=O)c2ccccc2)OC(=O)C3C)CC1 (centres unmarked) [Example 18, 3,8-dimethyl-12-(4-methylpiperidino)-4,14-dioxo-11-phenylcarbonyloxy-5,9,15-trioxatetracyclo[11.2.1.0^2,6.0^8,10]hexadec-13(16)-ene]	–	–	–	–	≤ 30	≤ 30
CC1C(=O)OC2CC3(C)OC3C(OC(=O)C3CCCCC3)C(N(C)C)C3=CC(OC3=O)C21 (centres unmarked) [Example 24, 12-(dimethylamino)-3,8-dimethyl-4,14-dioxo-5,9,15-trioxatetracyclo[11.2.1.0^2,6.0^8,10]hexadec-13(16)-en-11-yl cyclohexanecarboxylate]	–	–	–	–	≤ 30	≤ 30
CC1C(=O)OC2CC3(C)OC3C(OC(=O)c3ccc(F)cc3)C(N(C)C)C3=CC(OC3=O)C21 (centres unmarked) [Example 25, 12-(dimethylamino)-3,8-dimethyl-4,14-dioxo-5,9,15-trioxatetracyclo[11.2.1.0^2,6.0^8,10]hexadec-13(16)-en-11-yl 4-fluorobenzoate]	–	–	–	–	≤ 30	≤ 30
CCCCCCC(=O)OC1C(N(C)C)C2=CC(OC2=O)C2C(CC3(C)OC13)OC(=O)C2C (centres unmarked) [Example 27, 12-(dimethylamino)-3,8-dimethyl-4,14-dioxo-5,9,15-trioxatetracyclo[11.2.1.0^2,6.0^8,10]hexadec-13(16)-en-11-yl heptanoate]	–	–	–	–	≤ 30	≤ 30
CC1C(=O)OC2CC3(C)OC3C(OC(=O)c3ccc(C(F)(F)F)cc3)C(N(C)C)C3=CC(OC3=O)C21 (centres unmarked) [Example 28, 12-(dimethylamino)-3,8-dimethyl-4,14-dioxo-5,9,15-trioxatetracyclo[11.2.1.0^2,6.0^8,10]hexadec-13(16)-en-11-yl 4-(trifluoromethyl)benzoate]	–	–	–	–	≤ 30	≤ 30
CC1C(=O)OC2CC3(C)OC3C(OC(=O)c3cccs3)C(N(C)C)C3=CC(OC3=O)C21 (centres unmarked) [Example 29, 12-(dimethylamino)-3,8-dimethyl-4,14-dioxo-5,9,15-trioxatetracyclo[11.2.1.0^2,6.0^8,10]hexadec-13(16)-en-11-yl 2-thiophenecarboxylate]	–	–	–	–	≤ 30	≤ 30
CC1C(=O)OC2CC3(C)OC3C(OC(=O)CC(C)(C)C)C(N(C)C)C3=CC(OC3=O)C21 (centres unmarked) [Example 30, 12-(dimethylamino)-3,8-dimethyl-4,14-dioxo-5,9,15-trioxatetracyclo[11.2.1.0^2,6.0^8,10]hexadec-13(16)-en-11-yl 3,3-dimethylbutanoate]	–	–	–	–	≤ 30	≤ 30
CC1C(=O)OC2CC3(C)OC3C(OC(=O)c3cc4ccccc4s3)C(N(C)C)C3=CC(OC3=O)C21 (centres unmarked) [Example 31, 12-(dimethylamino)-3,8-dimethyl-4,14-dioxo-5,9,15-trioxatetracyclo[11.2.1.0^2,6.0^8,10]hexadec-13(16)-en-11-yl 1-benzothiophene-2-carboxylate]	–	–	–	–	≤ 30	≤ 30
CC1C(=O)OC2CC3(C)OC3C(OC(=O)c3ccco3)C(N(C)C)C3=CC(OC3=O)C21 (centres unmarked) [Example 32, 12-(dimethylamino)-3,8-dimethyl-4,14-dioxo-5,9,15-trioxatetracyclo[11.2.1.0^2,6.0^8,10]hexadec-13(16)-en-11-yl 2-furoate]	–	–	–	–	≤ 30	≤ 30
COc1ccccc1NC(=O)OC1C(N(C)C)C2CC(OC2=O)C2C(CC3(C)OC13)OC(=O)C2C (centres unmarked) [Example 39, 8-(dimethylamino)-3,10a-dimethyl-2,6-dioxodecahydro-4,7-methenofuro[3,2-c]oxireno[f]oxacycloundecin-9-yl 2-methoxyphenylcarbamate]	–	–	–	–	≤ 30	≤ 30
CSc1ccccc1NC(=O)OC1C(N(C)C)C2CC(OC2=O)C2C(CC3(C)OC13)OC(=O)C2C (centres unmarked) [Example 40, 8-(dimethylamino)-3,10a-dimethyl-2,6-dioxodecahydro-4,7-metheno-furo[3,2-c]oxireno[f]oxacycloundecin-9-yl 2(methylthio)phenylcarbamate]	–	–	–	–	≤ 30	≤ 30
CCOc1ccccc1NC(=O)OC1C(N(C)C)C2CC(OC2=O)C2C(CC3(C)OC13)OC(=O)C2C (centres unmarked) [Example 41, 8-(dimethylamino)-3,10a-dimethyl-2,6-dioxodecahydro-4,7-methenofuro[3,2-c]oxireno[f]oxacycloundecin-9-yl 2-ethoxyphenylcarbamate]	–	–	–	–	≤ 30	≤ 30
CC1C(=O)OC2CC3(C)OC3C(OC(=O)Nc3ccsc3)C(N(C)C)C3CC(OC3=O)C21 (centres unmarked) [Example 42, 8-(dimethylamino)-3,10a-dimethyl-2,6-dioxodecahydro-4,7-methenofuro[3,2-c]oxireno[f]oxacycloundecin-9-yl thien-3-ylcarbamate]	–	–	–	–	≤ 30	≤ 30
CC1C(=O)OC2CC3(C)OC3C(OC(=O)Nc3csc4ccccc34)C(N(C)C)C3CC(OC3=O)C21 (centres unmarked) [Example 43, 8-(dimethylamino)-3,10a-dimethyl-2,6-dioxodecahydro-4,7-methenofuro[3,2-c]oxireno[f]oxacycloundecin-9-yl 1-benzothien-3-ylcarbamate]	–	–	–	–	≤ 30	≤ 30
